Data as given in US10238738B2, “Methods of modulating immune system responses” (priority 2014, dated 2019).

What was measured:
Assay type in all cases: cell-based, human
NF-κB response to HBP = assay: HBP internalization assay: NF-κB luciferase in 293T cells pre-treated with inhibitors; details: 80 μM Dynasore or 10 μM cytochalasin D 1 hr prior to stimulation, FIG. 3b
Procedure: (§1) 293T were maintained in DMEM supplemented with 10% FBS, 1% glutamax, and 1% penicillin streptomycin. Jurkat 1G5 cells contain a stably-integrated LTR-luciferase reporter gene (Aguilar-Cordova et al., 1994), and were maintained in RPMI supplemented with 10% FBS and 1% glutamax. THP-1 cells were maintained in RPMI supplemented with 10% FBS and 1% glutamax and differentiated to macrophages with 50 ng/ml PMA for 48 hr, followed by a 48 hr rest period prior to stimulation. To measure LTR-driven luciferase, 1G5 cells were lysed and luminescence determined using the Luciferase Assay kit (Promega) according to manufacturer's instructions. Results are expressed as fold change compared to untreated. 293T cells were transfected in 96 well plates with 90 ng ELAM firefly luciferase reporter plasmid (Chow et al., 1999) and 10 ng pRL-TK Renilla plasmid using TransiT LTI (Mirus). 18 hours later cells were treated for 6 hours and luciferase activity determined using the Dual-Glo Luciferase Assay System (Promega). Results are expressed as fold increase relative to transfected, mock treated cells following normalization to Renilla luciferase. […]

THP-1 macrophages = assay: Infection of THP-1 macrophages with serum-opsonized E. coli, IL-6 production; details: 10 μg/ml cytochalasin D for 30 min; FIG. 6a
Procedure: Neisseria strains were grown overnight on GC agar supplemented with IsovitaleX enrichment (BD Biosciences). E. coli and S. typhimurium were grown overnight on LB agar, S. pneumoniae was grown on Columbia blood agar containing 5% sheep blood, and H. influenzae, B. multivorans, L. monocytogenes, and S. aureus were grown on brain heart infusion (BHI) agar (BD Biosciences). Where culture supernatant was desired, overnight cultures were scraped into PBS, re-suspended in RPMI 1% Isovitalex at an OD600=0.2, grown for 6 hours and the spent medium filtered through a 0.22 μm filter. For heat-killed bacteria, overnight cultures were scraped into PBS and 1 OD600 unit was re-suspended in 100 μl PBS and heated to 65° C. for 1 hr, with the exception of B. multivorans which was heated to 85° C. Cell pellets were washed, re-suspended in 100 μl PBS, and 2 μl/well used as treatment. To generate lysates, cultures were treated as above and boiled for 15 minutes. […]
Relative expression was calculated using the 2^−ΔΔCT method following normalization of target gene abundance to GAPDH. Quantitative measurements of cytokines were performed using ELISA kits form R&D Systems (KC, IL-23, IFN-β) or BD Biosciences (IL-1β, IL-8, IL-6, IL-12p70, TNF-α). Nuclear extracts were prepared from Jurkat T cells and NF-κB subunit binding was determined using the TransAM® Transcription Factor ELISA (Active Motif). […]

NF-κB = NF-κB luciferase reporter assay in 293T cells
Procedure: as §1, with “luciferase. Digitonin permeabilization assays were done as described previously (Girardin et al., 2003) with the following modifications: 1G5 cells were stimulated with purified HBP supernatants, or 10 μg/ml flagellin (Invivogen) for 20 minutes at 4° C. in the absence or presence of 2 μg/ml digitonin (Sigma).” for “luciferase.”
293T were maintained in DMEM supplemented with 10% FBS, 1% glutamax, and 1% penicillin streptomycin. […] To measure LTR-driven luciferase, 1G5 cells were lysed and luminescence determined using the Luciferase Assay kit (Promega) according to manufacturers instructions. Results are expressed as fold change compared to untreated. […] 18 hours later cells were treated for 6 hours and luciferase activity determined using the Dual-Glo Luciferase Assay System (Promega). Results are expressed as fold increase relative to transfected, mock treated cells following normalization to Renilla luciferase.

[1] = test system: HIV LTR-luciferase in Jurkat 1G5 cells; assay: LTR-driven luciferase in Jurkat 1G5 cells with reversible digitonin permeabilization; details: FIG. 3a
Procedure: as §1

## O=C(N/N=C/c1ccc(O)c(O)c1)c1cc2ccccc2cc1O [Dynasore]
NF-κB response to HBP
  Effect of inhibitor on NF-κB response to HBP: attenuated the NF-κB response to HBP

## C=C1[C@@H](C)[C@H]2[C@H](Cc3ccccc3)NC(=O)[C@]23[C@H](OC(C)=O)/C=C/[C@@](C)(O)C(=O)[C@@H](C)C/C=C/[C@H]3[C@@H]1O [cytochalasin D]
NF-κB response to HBP
  Effect of inhibitor on NF-κB response to HBP: not
THP-1 macrophages
  Effect of pre-treatment on the higher IL-6 production induced by HBP-synthesizing E. coli: abrogated the effect

## C[C@H](N)C(=O)N[C@H](CCC(=O)N[C@@H](CCC[C@@H](N)C(=O)O)C(=O)O)C(=O)O [m-TriDAP, reference compound]
NF-κB
  NF-κB response of 293T cells to known Gram-negative PAMPs: unresponsive

## flagellin
[1]
  Luciferase activity after delivery into the cytosol: remained constant
